The target of one series is GHSR-1a (Homo sapiens (Human), UniProt Q92847). Put plainly: Agonistic activity for GHSR-1a, FLIPR calcium assay. The series is classed as cell-based. The settings on record: agonist activity assay, Flp In-CHO-GHSR Stable Pool cells, FLIPR calcium 6 kit; read-out: The activity (IC50) of polypeptide compounds for GHSR-1a.
In the next series the target is CYP1A2 (Homo sapiens (Human), UniProt P05177). Put plainly: in vitro. The conditions noted are these: microsomes; for IC50: 10 min. Type of series: in vitro ADME. Here is the method: (§1) Human liver microsomes containing cytochrome P450 (0.253 mg/mL protein) were incubated with test compounds (0.05-50 μM), CYPs substrates (10 μM […], 5 μM diclofenac, 30 μM mephenytoin, 5 μM dextromethorphan hydrobromide and 2 μM midazolam) and 1.0 mM NADP at 37° C. for 10 min. Naphthoflavone, sulfaphenazole, N-3-benzylnirvanol, quinidine and ketoconazole were used as reference inhibitors.

In a further series the target is CYP 2C19 (Homo sapiens (Human), UniProt P33261). Type of series: in vitro ADME. The settings on record: microsomes, 10 min. The protocol: as §1
The next series deals with CYP 2C9 (Homo sapiens (Human), UniProt P11712). The series is classed as in vitro ADME. The settings on record: microsomes, 10 min. The protocol: as §1
In the next series the target is CYP 2D6 (Homo sapiens (Human), UniProt P10635). The series is classed as in vitro ADME. The settings on record: microsomes, 10 min. Here is the method:
as §1

The target in the next series is CYP 3A4 (Homo sapiens (Human), UniProt P08684). Type of series: in vitro ADME. The conditions noted are these: microsomes, 10 min. The protocol:
as §1

Starred links: 1 amine or outer side, 2 acyl side, 3 side chain; linkers in the order of their positions; H or OH if unused. Non-standard residues stand in square brackets, D forms with d. Residues, ends and D or L forms follow the SMILES beside them. *: point of attachment. Azetidine3carboxylic = O=C(C1CN([*:1])C1)[*:2]; Pyrrolidine3carbonyl(3S) = O=C([C@H]1CCNC1)*; dBta = N[C@H](Cc1csc2ccccc12)C(=O)O; X1 = N[C@H]1CCC[C@H]1C(=O)*; Api = NC1(C(=O)O)CCNCC1; X3 = NCC1(C(=O)*)CCC1 A value given as a limit tells only on which side of the number the result lay.

Sequence of CYP 2C19 (P33261 whole entry): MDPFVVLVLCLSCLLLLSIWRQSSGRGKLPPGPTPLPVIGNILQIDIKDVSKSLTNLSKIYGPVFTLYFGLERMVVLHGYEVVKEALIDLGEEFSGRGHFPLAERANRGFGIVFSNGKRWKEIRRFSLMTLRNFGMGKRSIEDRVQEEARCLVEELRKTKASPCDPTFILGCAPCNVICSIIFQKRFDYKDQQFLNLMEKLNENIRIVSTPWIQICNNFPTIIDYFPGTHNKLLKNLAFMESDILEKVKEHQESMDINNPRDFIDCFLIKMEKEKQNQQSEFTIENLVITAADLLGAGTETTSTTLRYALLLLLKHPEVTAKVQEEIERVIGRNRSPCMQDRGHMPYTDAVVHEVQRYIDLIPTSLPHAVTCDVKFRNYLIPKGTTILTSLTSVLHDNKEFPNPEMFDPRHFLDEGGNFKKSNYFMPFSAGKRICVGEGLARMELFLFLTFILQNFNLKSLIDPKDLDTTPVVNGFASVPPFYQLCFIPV
Sequence of GHSR-1a (Q92847 whole entry): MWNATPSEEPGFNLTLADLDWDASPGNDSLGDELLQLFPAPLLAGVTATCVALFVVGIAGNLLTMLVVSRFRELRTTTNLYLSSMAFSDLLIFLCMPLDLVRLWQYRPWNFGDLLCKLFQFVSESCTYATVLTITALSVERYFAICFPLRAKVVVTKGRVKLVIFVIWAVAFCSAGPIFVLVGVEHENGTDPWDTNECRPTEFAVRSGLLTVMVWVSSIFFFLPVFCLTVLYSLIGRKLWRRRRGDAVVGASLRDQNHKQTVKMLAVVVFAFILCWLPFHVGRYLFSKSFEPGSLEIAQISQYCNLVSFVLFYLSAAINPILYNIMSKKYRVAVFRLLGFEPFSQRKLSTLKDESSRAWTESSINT
Sequence of CYP 3A4 (P08684 whole entry): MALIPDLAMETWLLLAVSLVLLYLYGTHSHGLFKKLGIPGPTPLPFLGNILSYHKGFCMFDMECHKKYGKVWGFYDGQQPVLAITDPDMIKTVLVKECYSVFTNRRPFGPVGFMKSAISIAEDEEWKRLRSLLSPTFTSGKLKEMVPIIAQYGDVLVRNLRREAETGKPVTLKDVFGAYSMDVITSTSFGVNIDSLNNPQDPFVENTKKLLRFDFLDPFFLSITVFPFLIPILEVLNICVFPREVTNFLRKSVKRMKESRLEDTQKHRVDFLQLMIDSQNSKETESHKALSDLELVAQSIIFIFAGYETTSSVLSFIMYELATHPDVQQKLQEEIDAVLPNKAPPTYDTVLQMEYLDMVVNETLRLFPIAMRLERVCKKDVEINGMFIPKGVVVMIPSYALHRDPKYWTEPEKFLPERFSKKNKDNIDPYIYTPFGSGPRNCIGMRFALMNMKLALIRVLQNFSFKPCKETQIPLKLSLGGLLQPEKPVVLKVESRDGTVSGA
Sequence of CYP1A2 (P05177 whole entry): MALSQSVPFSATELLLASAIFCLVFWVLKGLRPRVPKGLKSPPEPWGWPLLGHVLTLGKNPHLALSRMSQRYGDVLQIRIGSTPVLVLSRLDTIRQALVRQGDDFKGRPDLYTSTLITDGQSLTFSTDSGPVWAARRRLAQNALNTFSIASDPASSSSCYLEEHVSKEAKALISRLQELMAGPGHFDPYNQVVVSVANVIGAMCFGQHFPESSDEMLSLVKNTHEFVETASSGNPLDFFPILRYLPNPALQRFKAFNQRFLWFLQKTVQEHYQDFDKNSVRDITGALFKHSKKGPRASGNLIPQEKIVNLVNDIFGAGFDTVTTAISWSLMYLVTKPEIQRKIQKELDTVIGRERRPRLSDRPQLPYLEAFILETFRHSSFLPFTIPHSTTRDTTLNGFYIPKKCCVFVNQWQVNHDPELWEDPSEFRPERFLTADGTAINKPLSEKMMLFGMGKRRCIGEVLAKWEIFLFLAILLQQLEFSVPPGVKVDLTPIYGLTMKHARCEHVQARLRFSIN
Sequence of CYP 2D6 (P10635 whole entry): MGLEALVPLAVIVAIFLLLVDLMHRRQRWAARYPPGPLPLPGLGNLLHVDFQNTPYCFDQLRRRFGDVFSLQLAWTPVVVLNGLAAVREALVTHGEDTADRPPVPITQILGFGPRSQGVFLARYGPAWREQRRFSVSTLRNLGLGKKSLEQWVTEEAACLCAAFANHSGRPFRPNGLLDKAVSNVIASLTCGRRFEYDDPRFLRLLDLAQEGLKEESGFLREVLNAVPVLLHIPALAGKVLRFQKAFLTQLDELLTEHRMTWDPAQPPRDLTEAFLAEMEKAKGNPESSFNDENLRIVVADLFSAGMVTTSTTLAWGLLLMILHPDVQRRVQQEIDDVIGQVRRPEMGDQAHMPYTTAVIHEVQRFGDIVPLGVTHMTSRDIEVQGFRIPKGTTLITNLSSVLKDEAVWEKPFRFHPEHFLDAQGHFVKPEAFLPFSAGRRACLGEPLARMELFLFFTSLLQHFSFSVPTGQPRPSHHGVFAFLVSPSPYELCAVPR
Sequence of CYP 2C9 (P11712 whole entry): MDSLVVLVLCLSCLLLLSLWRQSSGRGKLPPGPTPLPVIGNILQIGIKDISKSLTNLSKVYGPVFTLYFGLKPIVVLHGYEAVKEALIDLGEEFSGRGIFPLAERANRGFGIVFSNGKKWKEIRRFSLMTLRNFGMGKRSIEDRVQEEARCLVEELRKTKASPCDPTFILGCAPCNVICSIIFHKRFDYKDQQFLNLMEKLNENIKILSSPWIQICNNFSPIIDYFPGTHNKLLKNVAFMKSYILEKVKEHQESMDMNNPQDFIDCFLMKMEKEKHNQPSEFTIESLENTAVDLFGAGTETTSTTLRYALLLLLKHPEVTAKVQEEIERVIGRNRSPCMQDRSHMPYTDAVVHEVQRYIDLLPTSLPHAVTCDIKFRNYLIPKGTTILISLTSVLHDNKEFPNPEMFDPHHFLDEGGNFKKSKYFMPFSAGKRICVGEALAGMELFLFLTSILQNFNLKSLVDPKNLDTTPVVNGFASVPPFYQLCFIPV

For orientation: IC50 means the concentration that gives 50% inhibition. With `NCCCC[C@@H](NC(=O)[C@H](Cc1ccccc1)NC(=O)[C@@H](Cc1c[nH]c2ccccc12)NC(=O)[C@@H](Cc1csc2ccccc12)NC(=O)C1CNC1)C(N)=O` [Compound 53] (Azetidine3carboxylic-[dBta][dW]F[dK]-NH2), the IC50 is 0.0112 µM at GHSR-1a; over 50 µM against CYP1A2; over 50 µM on CYP 2C19; over 50 µM against CYP 2C9; over 50 µM at CYP 2D6; over 50 µM at CYP 3A4.

In the case of `NC(=O)[C@H](Cc1ccccc1)NC(=O)[C@@H](Cc1c[nH]c2ccccc12)NC(=O)[C@@H](Cc1csc2ccccc12)NC(=O)[C@@H]1CCC[C@@H]1N` [Compound 71], the 50% inhibitory concentration (IC50) at GHSR-1a is 0.0033 µM; on CYP 2C19, over 50 µM; against CYP 2C9 it was over 50 µM; against CYP 2D6, over 50 µM; against CYP 3A4 it was over 50 µM. This compound also came in with an IC50 at 10 min against CYP1A2 of over 50 µM.

With `NCC(=O)N[C@H](Cc1csc2ccccc12)C(=O)N[C@H](Cc1c[nH]c2ccccc12)C(=O)N[C@@H](Cc1ccccc1)C(=O)NC1(C(N)=O)CCNCC1` [Compound 11] (H-G[dBta][dW]F[Api]-NH2), the 50% inhibitory concentration (IC50) was 0.0203 µM on GHSR-1a; over 50 µM against CYP1A2; over 50 µM on CYP 2C19; over 50 µM against CYP 2C9; over 50 µM on CYP 2D6; 33.4 µM against CYP 3A4.

For the compound `NCC1(C(=O)N[C@H](Cc2csc3ccccc23)C(=O)N[C@H](Cc2c[nH]c3ccccc23)C(=O)N[C@@H](Cc2ccccc2)C(=O)NC2(C(N)=O)CCNCC2)CCC1` [Compound 22] (X3-[dBta][dW]F[Api]-NH2), the half-maximal inhibitory concentration (IC50) is 0.0023 µM at GHSR-1a; over 50 µM against CYP1A2; over 50 µM on CYP 2C19; over 50 µM against CYP 2C9; over 50 µM against CYP 2D6; over 50 µM on CYP 3A4.

`NC(=O)C1(NC(=O)[C@H](Cc2ccccc2)NC(=O)[C@@H](Cc2c[nH]c3ccccc23)NC(=O)[C@@H](Cc2csc3ccccc23)NC(=O)[C@H]2CCNC2)CCNCC1` [Compound 26] ({Pyrrolidine3carbonyl(3S)}-[dBta][dW]F[Api]-NH2): the IC50 is 0.0195 µM on GHSR-1a; over 50 µM against CYP1A2; over 50 µM at CYP 2C19; over 50 µM on CYP 2C9; over 50 µM at CYP 2D6; over 50 µM on CYP 3A4.

On to `NC(=O)C1(NC(=O)[C@H](Cc2ccccc2)NC(=O)[C@@H](Cc2c[nH]c3ccccc23)NC(=O)[C@@H](Cc2csc3ccccc23)NC(=O)[C@@H]2CCC[C@@H]2N)CCNCC1` [Compound 21] (X1-[dBta][dW]F[Api]-NH2), for which the IC50 was 0.023 µM at GHSR-1a; over 50 µM on CYP1A2; over 50 µM against CYP 2C19; over 50 µM at CYP 2C9; over 50 µM against CYP 2D6; over 50 µM at CYP 3A4.

Regarding `NC(=O)C1(NC(=O)[C@H](Cc2ccccc2)NC(=O)[C@@H](Cc2c[nH]c3ccccc23)NC(=O)[C@@H](Cc2csc3ccccc23)NC(=O)[C@@H]2CCCN2)CCNCC1` [Compound 15] (H-P[dBta][dW]F[Api]-NH2), the IC50 at GHSR-1a was 0.0023 µM; at CYP1A2, over 50 µM; at CYP 2C19 it was over 50 µM; against CYP 2C9, over 50 µM; against CYP 2D6, 31.1 µM; against CYP 3A4, 8.82 µM.

For the origin of these results see US20240158438A1, “POLYPEPTIDE COMPOUND AND APPLICATION THEREOF” (CHENGDU SINTANOVO BIOTECHNOLOGY CO., LTD., priority 2021, published 2024).
